# Measured values: patent publication US7566453B2, “Methods for treating melanomas” (Chugai Seiyaku Kabushiki Kaisha, priority 1998, dated 2009)
# Assays:
# [1] = Body weight change (toxicity) of myeloma-implanted mice, Example 2; format: in vivo, SCID mouse; conditions: melphalan administration (FIG. 10)
# Text: (§1) For evaluation of antitumor activity, a xenograft model was used. Thus, KPMM2, a human myeloma cell line derived from ascites of a patient with multiple myeloma was implanted to a male SCID mouse (FOX CHASE C. B17/Icr-Scid Jcl, purchased from Nippon Klea) via the tail vein. At this time, the tumor cells grow in the bone marrow and come to produce myeloma protein (M protein) in the peripheral blood. Furthermore, this model system is very close to an actual clinical condition in that it develops major symptoms of multiple myeloma in humans such as bone disorders, elevated blood calcium, and the like.
# With regard to anti-human IL-6 receptor antibody, a stock solution that had been preserved at 12.1 mg/ml was diluted in sterile phosphate buffer to make 5 mg/ml. This was given to mice at 0.2 ml per animal via the tail vein on day 8 (1 mg per mouse). The control group received sterile phosphate buffer containing no antibody in a similar manner.
# Melphalan (L-PAM, manufactured by Sigma Chemical Co.) that was suspended at 0.3 or 0.1 mg/ml in 0.2% CMC (carboxymethylcellulose) solution in water was used. This was given orally at 0.1 ml per 10 g body weight of mouse (3 or 1 mg/kg weight) for 5 consecutive days starting on day 1. The control group received 0.2% CMC solution in water containing no melphalan in a similar manner. […]
# [2] = Body weight change (toxicity) of myeloma-implanted mice, Example 3; format: in vivo, SCID mouse; conditions: melphalan administration (FIG. 16)
# Description: For evaluation of antitumor effects, a xenograft model animal that was produced by implanting KPMM2 cells via the tail vein was used as in Working example 2. Thus, single-cell suspensions which were prepared by passing through a mesh KPMM2 cells that were minced after having been maintained in vivo were implanted at 0.2 ml per mouse via the tail vein (6×10^6 cells per mouse). The day when the cells were implanted was set at day 0.
# With regard to anti-human IL-6 receptor antibody hPM-1, a stock solution that had been preserved at 6.57 mg/ml was diluted in sodium phosphate buffer to make each solution of 5, 1, 0.2, and 0.04 mg/ml. They were given to mice at 0.1 ml per 10 g body weight of mouse via the tail vein on day 14 to create the 50, 10, 2, and 0.4 mg/kg administration groups. The control group received the same buffer without antibody in a similar manner. […]
# The experiment was carried out on the following 10 groups: (A) the melphalan and the antibody non-administration group; (B) the melphalan single-drug administration group; (C) the each dose of antibody single-drug administration group , 4 groups (50, 10, 2, 0.4 mg/kg weight); and, (D) the melphalan and the each dose of antibody combined administration group, 4 groups (50, 10, 2, 0.4 mg/kg weight). […] The amount of M protein was calculated as described in Example 2.
# [3] = tested on: KPMM2, a human myeloma cell line; experiment: Human myeloma cell-implanted SCID mouse system (Example 2): survival, disease-free ratio, serum M protein; format: in vivo; conditions: for Survival period: mean ± standard error; for Life-elongation ratio* (%): 100 × (drug administration group/drug non-administration group); for None disease ratio: survival ratio without disease on day 120
# Text: as §1
# Single cell suspension of myeloma cells for implantation was prepared by passing through a mesh the well minced KPMM2 cells that have been maintained in vivo. Cell density was adjusted to 3×10^7/ml, which was implanted at 0.2 ml per mouse via the tail vein ([…]). The day when the cells were implanted was set at day 0.
# This was given to mice at 0.2 ml per animal via the tail vein on day 8 (1 mg per mouse).
# Melphalan (L-PAM, manufactured by Sigma Chemical Co.) that was suspended at 0.3 or 0.1 mg/ml in 0.2% CMC (carboxymethylcellulose) solution in water was used. This was given orally at 0.1 ml per 10 g body weight of mouse (3 or 1 mg/kg weight) for 5 consecutive days starting on day 1.
# The experiment was carried out on the following six groups: (1) the melphalan and antibody non-administration group; (2) the 1 mg/kg melphalan single-drug administration group; (3) the 3 mg/kg melphalan single-drug administration group; (4) antibody single-drug administration group; (5) the 1 mg/kg melphalan and antibody combined administration group; and (6) the 3 mg/kg melphalan and antibody combined administration group. Group 1 included 9 mice, whereas each of the other groups included 7 mice. Furthermore, tumor was not implanted on mice of the same lineage and purchased on the same day, which were used as negative control for M protein detection.
# Indices of the drug efficacy included the survival period, the survival ratio without disease on day 120, and the amount of M protein on day 30. For analysis using a survival curve, a generalized Wilcoxon's test (SPSS for windows ver. 6, SPSS inc.) was used. A significance level of 5% or lower was considered to be significant.
# Serum M protein was detected as human IgG using the ELISA method. First, mouse serum was dispensed into a 96-well micro plate that had previously been coated with anti-human IgG antiserum and was allowed to stand. Then alkaline phosphatase-conjugated […] was bound thereto, and SIGMA104 phosphatase substrate was added for color development, absorbance of which was read using a microplate reader. M protein content in the serum was calculated using the standard curve obtained from normal human IgG.
# human IL-6 receptor = molecular target: T1, human IL-6 receptor (Homo sapiens, UniProt P08887); experiment: Inhibition of binding of human IL-6 to human IL-6 receptor; conditions: compared with mouse antibody and chimeric antibody
# T1 sequence (P08887 20-468): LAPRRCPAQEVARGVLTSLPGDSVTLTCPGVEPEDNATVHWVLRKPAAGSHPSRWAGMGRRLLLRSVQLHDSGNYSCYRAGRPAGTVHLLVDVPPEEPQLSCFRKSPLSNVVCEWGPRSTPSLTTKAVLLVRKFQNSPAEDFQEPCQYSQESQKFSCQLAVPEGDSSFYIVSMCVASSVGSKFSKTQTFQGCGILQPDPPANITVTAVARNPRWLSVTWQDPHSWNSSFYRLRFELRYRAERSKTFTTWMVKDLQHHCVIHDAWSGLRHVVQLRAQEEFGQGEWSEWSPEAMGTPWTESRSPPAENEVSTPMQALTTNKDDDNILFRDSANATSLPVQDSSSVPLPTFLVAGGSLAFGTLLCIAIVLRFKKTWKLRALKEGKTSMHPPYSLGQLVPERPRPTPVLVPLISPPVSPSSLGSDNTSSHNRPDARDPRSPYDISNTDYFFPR
# Text: In order to express genes of L chain and H chain of the reshaped human PM-1 antibody thus constructed, DNA encoding the L chain or the H chain was separately inserted into a vector containing the human elongation factor 1α (HEF-1α) promoter, and a vector expressing the L chain or the H chain of the reshaped human PM-1 (hPM-1) antibody was constructed. By simultaneously inserting these two expression vectors into CHO cells, a cell line that produces reshaped human PM-1 antibody (hPM-1) was established.
# [4] = melphalan 1 mg/kg orally, 5 days from day 1, no antibody
# [5] = melphalan 3 mg/kg orally, 5 days from day 1, no antibody
# [6] = hPM-1 1 mg per mouse via the tail vein on day 8, CMC control
compound,measurement,setting,value
NC(Cc1ccc(N(CCCl)CCCl)cc1)C(=O)O (stereo not drawn) [melphalan],toxicity (inhibition of body weight gain),[1],caused toxicity in mice and inhibited body weight gain
same,toxicity (inhibition of body weight gain),[2],caused toxicity to mice and inhibited body weight gain
same,life elongation effect as compared to the non-administration group,[3]; 1 mg/ml melphalan administration group (FIG. 7),no life elongation effect
same,life elongation effect as compared to the non-administration group,[3]; 3 mg/kg melphalan single-drug administration (FIG. 9),significant life elongation effect
same,Survival period,"[3]; melphalan 1 mg/kg orally, 5 consecutive days from day 1, no antibody",47.3 ± 3.1
same,Life-elongation ratio* (%),[3]; [4],101%
same,Survival period,"[3]; melphalan 3 mg/kg orally, 5 consecutive days from day 1, no antibody",84.1 ± 9.1
same,Life-elongation ratio* (%),[3]; [5],175%
same,None disease ratio,[3]; [4],0/7
same,None disease ratio,[3]; [5],2/7
"hPM-1: reshaped human PM-1 antibody: CDRs of mouse anti-IL-6 receptor antibody PM-1 grafted to human antibody, produced in CHO cells",life elongation effect as compared to the non-administration group,"[3]; antibody single-drug administration, 1 mg per mouse on day 8 (FIG. 7)",no life elongation effect
same,Life-elongation ratio* (%),[3]; [6],118%
same,Survival period,[3]; [6],55.1 ± 5.2
same,None disease ratio,"[3]; hPM-1 1 mg per mouse on day 8, CMC control",0/7
same,inhibition of the binding of human IL-6 to human IL-6 receptor,human IL-6 receptor,inhibited the binding of human IL-6 to human IL-6 receptor in a similar manner to that of mouse antibody and chimeric antibody
